Test results from patent US20070232601A1, “Vla-4 Inhibitor” (priority 2004, published 2007).

Target: T1, hα4 and β1 integrins (VLA-4) (Homo sapiens, UniProt P05556+P13612)
T1 construct: expressed in transfected cells; host or cells: CHO cells
Assay: In vitro evaluation: inhibition of binding of CHO cells expressing hα4 and β1 integrins to Eu3+-hVCAM-1 D1D7-IgG
Details: ligand Eu3+-hVCAM-1 D1D7-IgG 2 nM, Ki calculated from IC50
Method: CHO cells which were forced to be expressed by transduction of hα4 and β1 integrins are seeded (3×10^4 cells/100 μl/well) on a Costar 3599 plate, and cultured for 2 days. A medium is washed with a buffer A* two times, and Eu^3+-hVCAM-1 D1D7-IgG which was diluted with an assay buffer A** to 2 nM is added at 50 μl/well. A test substance which was diluted with 2% DMSO-assay buffer (in the presence or the absence of 6% human serum albumin) is added at 50 μl/well (A solution which was separately diluted is added to a well in which Scatchard analysis is performed), this is stirred with a plate mixer for 5 minutes, and allowed to stand at room temperature for 1 hour. Thereafter, this is washed with a buffer A four times, a potentiating reagent (manufactured by DELFIA) is added at 100 μl/well, this is shaken for 5 minutes using a plate mixer, and a fluorescence intensity is measured with a time-resolved fluorometer (DELFIA Wallac). IC50 (concentration at which binding of CHO cell and Eu^3+-hVCAM-1 D1D7-IgG is inhibited by 50%) of a test substance is obtained from an integration rate obtained from a calculation equation: [(FT−FNS)−(FI−FNS)]/[(FT−FNS)]×100, wherein FT indicates a fluorescence intensity of a well not containing a test substance, FNS indicates a fluorescence intensity of a well not containing a test substance and hVCAM-1 D1D7-IgG, and FI indicates a fluorescence intensity containing a test substance. A Kd value showing strength of binding and Bmax (maximum binding amount) were presumed in a range of 0.06 to 20 nM according to the Scachard analysis method. [formula]
A Ki value was calculated according to the above equation ([L] is ligand concentration)
[* buffer A: 25 mM HEPES (pH 7.5), 150 mM NaCl, 1 mM Ca^2+, 1 mM Mg^2+, 4 mM Mn^2+; ** assay buffer: 25 mM HEPES (pH 7.5), 150 mM NaCl, 1 mM Ca^2+, 1 mM Mg^2+, 4 mM Mn^2+, 0.1% BSA, 20 μM DTPA, with/without 6% ALBUMIN, HUMAN SERUM (C/NA-1653, SIGMA)]

T1 sequence (P13612 34-1032): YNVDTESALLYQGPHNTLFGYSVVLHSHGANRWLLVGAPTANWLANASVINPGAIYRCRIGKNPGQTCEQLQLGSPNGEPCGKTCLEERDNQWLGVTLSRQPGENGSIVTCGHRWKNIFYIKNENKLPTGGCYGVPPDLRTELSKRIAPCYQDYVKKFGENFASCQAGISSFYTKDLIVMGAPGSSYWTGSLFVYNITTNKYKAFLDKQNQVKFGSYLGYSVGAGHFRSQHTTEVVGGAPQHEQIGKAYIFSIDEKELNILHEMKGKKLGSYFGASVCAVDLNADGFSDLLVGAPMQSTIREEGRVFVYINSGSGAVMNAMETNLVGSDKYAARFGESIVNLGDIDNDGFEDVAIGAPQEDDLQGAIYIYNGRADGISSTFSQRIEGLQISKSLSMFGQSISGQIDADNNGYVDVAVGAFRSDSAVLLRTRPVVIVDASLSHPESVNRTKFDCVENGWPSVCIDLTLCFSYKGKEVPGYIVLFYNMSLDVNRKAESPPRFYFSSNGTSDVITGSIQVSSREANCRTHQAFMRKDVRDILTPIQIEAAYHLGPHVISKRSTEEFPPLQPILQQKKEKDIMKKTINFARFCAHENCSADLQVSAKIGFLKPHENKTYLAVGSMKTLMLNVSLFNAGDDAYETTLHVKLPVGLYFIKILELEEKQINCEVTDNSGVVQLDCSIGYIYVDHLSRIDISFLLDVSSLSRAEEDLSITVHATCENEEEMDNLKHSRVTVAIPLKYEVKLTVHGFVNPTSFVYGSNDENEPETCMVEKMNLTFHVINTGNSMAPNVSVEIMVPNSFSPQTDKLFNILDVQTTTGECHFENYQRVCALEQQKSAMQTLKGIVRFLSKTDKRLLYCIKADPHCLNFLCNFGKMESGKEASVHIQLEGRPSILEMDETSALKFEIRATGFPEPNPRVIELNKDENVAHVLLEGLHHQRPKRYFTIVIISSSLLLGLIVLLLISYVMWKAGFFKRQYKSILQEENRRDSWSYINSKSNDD
T1 sequence (P05556 21-798): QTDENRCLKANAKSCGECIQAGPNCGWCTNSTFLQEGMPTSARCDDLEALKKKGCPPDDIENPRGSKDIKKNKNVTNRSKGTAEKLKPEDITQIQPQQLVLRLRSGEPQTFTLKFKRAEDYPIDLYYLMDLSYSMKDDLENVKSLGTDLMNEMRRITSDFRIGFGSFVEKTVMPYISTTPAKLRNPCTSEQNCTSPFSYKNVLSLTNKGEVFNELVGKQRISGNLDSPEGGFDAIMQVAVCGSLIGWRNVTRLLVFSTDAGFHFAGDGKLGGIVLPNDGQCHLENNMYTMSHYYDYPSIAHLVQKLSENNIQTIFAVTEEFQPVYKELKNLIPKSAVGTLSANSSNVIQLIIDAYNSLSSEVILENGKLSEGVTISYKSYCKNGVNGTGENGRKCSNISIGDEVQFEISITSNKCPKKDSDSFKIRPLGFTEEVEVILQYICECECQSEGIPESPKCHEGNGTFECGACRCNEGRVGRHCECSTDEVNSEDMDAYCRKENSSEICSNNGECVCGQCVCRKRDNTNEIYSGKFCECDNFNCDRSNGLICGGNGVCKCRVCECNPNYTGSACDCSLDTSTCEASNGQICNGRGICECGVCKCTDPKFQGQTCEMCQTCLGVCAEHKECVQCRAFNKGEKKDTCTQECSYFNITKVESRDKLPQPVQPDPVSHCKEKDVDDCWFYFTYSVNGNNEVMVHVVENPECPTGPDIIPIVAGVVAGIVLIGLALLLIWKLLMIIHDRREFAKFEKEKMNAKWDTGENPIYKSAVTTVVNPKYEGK

| SMILES | Ki |
| --- | --- |
| CO[C@@H]1C[C@@H](c2ncc(CCC(=O)O)s2)N(C(=O)Cc2cc(Cl)c(NC(=O)c3cn(C)c4ccccc34)cc2Cl)C1 [Example 24, 3-[2-[1-[2,5-Dichloro-4-(1-methyl-3-indolylcarbonylamino)phenylacetyl]-(4R)-methoxy-(2S)-pyrrolidinyl]-5-thiazolyl]propionic acid] | 6.5 nM |
| CO[C@H]1C[C@@H](c2cc(CCC(=O)O)on2)N(C(=O)Cc2cc(Cl)c(NC(=O)c3cn(C)c4ccccc34)cc2Cl)C1 [Example 30, 3-[3-[1-[2,5-Dichloro-4-(1-methyl-3-indolylcarbonylamino)phenylacetyl]-(4S)-methoxy-(2S)-pyrrolidinyl]-5-isoxazole]propionic acid] | 5.8 nM |
| CO[C@H]1C[C@@H](c2cc(CCC(=O)O)on2)N(C(=O)Cc2cc(Cl)c(NC(=O)c3cn(C)c4ccccc34)cc2F)C1 [Example 31, 3-[3-[1-[5-Chloro-2-fluoro-4-(1-methyl-3-indolylcarbonyl)aminophenylacetyl]-(4S)-methoxy-(2S)-pyrrolidinyl]-5-isoxazolyl]propionic acid] | 5.8 nM |
| CC(C)O[C@H]1C[C@@H](c2ncc(CCC(=O)O)s2)N(C(=O)Cc2cc(Cl)c(NC(=O)c3cn(C)c4ccccc34)cc2Cl)C1 [Example 34, 3-[2-[1-[2,5-Dichloro-4-(1-methyl-3-indolylcarbonylamino)phenylacetyl]-(4S)-isopropoxy-(2S)-pyrrolidinyl]-5-thiazolyl]propionic acid] | 5.1 nM |
| CC(C)O[C@H]1C[C@@H](c2ncc(CCC(=O)O)s2)N(C(=O)Cc2cc(Cl)c(NC(=O)c3coc4ccccc34)cc2Cl)C1 [Example 37, 3-[2-[1-[4-[(1-Benzofuran-3-ylcarbonyl)amino]-2,5-dichlorophenylacetyl]-(4S)-isopropoxy-(2S)-pyrrolidinyl]5-thiazolyl]propionic acid] | 5.9 nM |
| Cn1cc(C(=O)Nc2cc(Cl)c(CC(=O)N3C[C@@H](OC4CCC4)C[C@H]3c3ncc(CCC(=O)O)s3)cc2Cl)c2ccccc21 [Example 39, 3-[2-[1-[2,5-Dichloro-4-(1-methyl-3-indolylcarbonylamino)phenylacetyl]-(4S)-cyclobutoxy-(2S)-pyrrolidinyl]-5-thiazolyl]propionic acid] | 6.3 nM |
| Cn1cc(C(=O)Nc2cc(F)c(CC(=O)N3C[C@@H](OC4CCC4)C[C@H]3c3ncc(CCC(=O)O)s3)cc2Cl)c2ccccc21 [Example 40, 3-[2-[1-[5-Chloro-2-fluoro-4-(1-methyl-3-indolylcarbonyl)aminophenylacetyl]-(4S)-cyclobutoxy-(2S)-pyrrolidinyl]-5-thiazolyl]propionic acid] | 4 nM |
| O=C(O)CCc1cnc([C@@H]2C[C@H](OC3CCC3)CN2C(=O)Cc2cc(Cl)c(NC(=O)c3coc4ccccc34)cc2Cl)s1 [Example 42, 3-[2-[1-[4-[(1-Benzofuran-3-ylcarbonyl)amino]-2,5-dichlorophenylacetyl]-(4S)-cyclobutoxy-(2S)-pyrrolidinyl]-5-thiazolyl]propionic acid] | 7 nM |
| O=C(O)CCc1cnc([C@@H]2C[C@H](OC3CCC3)CN2C(=O)Cc2cc(Cl)c(NC(=O)c3coc4ccccc34)cc2F)s1 [Example 43, 3-[2-[1-[4-[(1-Benzofuran-3-ylcarbonyl)amino]-5-chloro-2-fluorophenylacetyl]-(4S)-cyclobutoxy-(2S)-pyrrolidinyl]-5-thiazolyl]propionic acid] | 2.9 nM |
| Cn1cc(C(=O)Nc2cc(Cl)c(CC(=O)N3C[C@@H](Oc4cccnc4)C[C@H]3c3ncc(CCC(=O)O)s3)cc2Cl)c2ccccc21 [Example 44, 3-[2-[1-[2,5-Dichloro-4-(1-methyl-3-indolylcarbonylamino)phenylacetyl]-(4S)-(3-pyridyloxy)-(2S)-pyrrolidinyl]-5-thiazolyl]propionic acid] | 3.9 nM |
| CCOC[C@@H]1CC[C@@H](c2ncc(CCC(=O)O)s2)N1C(=O)Cc1cc(Cl)c(NC(=O)c2cn(C)c3ccccc23)cc1Cl [Example 48, 3-[2-[1-[2,5-Dichloro-4-(1-methyl-3-indolylcarbonylamino)phenylacetyl]-(5S)-ethoxymethyl-(2S)-pyrrolidinyl]-5-thiazolyl]propionic acid] | 36 nM |
| CCOC[C@@H]1CC[C@@H](c2ncc(CCC(=O)O)s2)N1C(=O)Cc1cc(Cl)c(NC(=O)c2csc3ccccc23)cc1F [Example 49, 3-[2-[1-[4-[(3-Benzo[b]thienylcarbonyl)amino]-5-chloro-2-fluorophenylacetyl]-(5S)-ethoxymethyl-(2S)-pyrrolidinyl]-5-thiazolyl]propionic acid] | 22 nM |
| CCOC[C@@H]1CC[C@@H](c2ncc(CCC(=O)O)s2)N1C(=O)Cc1cc(Cl)c(NC(=O)c2coc3ccccc23)cc1F [Example 50, 3-[2-[1-[4-[(1-Benzofuran-3-ylcarbonyl)amino]-5-chloro-2-fluorophenylacetyl]-(5S)-ethoxymethyl-2(2S)-pyrrolidinyl)-5-thiazolyl]propionic acid] | 51 nM |
| CCOC[C@@H]1CC[C@@H](c2ncc(CCC(=O)O)s2)N1C(=O)Cc1ccc2nc(Nc3cc(F)ccc3OC)oc2c1F [Example 52, 3-[2-[(5S)-ethoxymethyl-1-[7-fluoro-2-(5-fluoro-2-methoxyphenylamino)-6-benzoxazolylacetyl]-(2S)-pyrrolidinyl]-5-thiazolyl]propionic acid] | 34 nM |
| COC[C@@H]1CC[C@@H](c2ncc(CCC(=O)O)s2)N1C(=O)Cc1cc(Cl)c(NC(=O)c2cn(C)c3ccccc23)cc1F [Example 53, 3-[2-[1-[5-Chloro-2-fluoro-4-(1-methyl-3-indolylcarbonyl)aminophenylacetyl]-(5S)-methoxymethyl-(2S)-pyrrolidinyl]-5-thiazolyl]propionic acid] | 16 nM |
| COC[C@@H]1CC[C@@H](c2ncc(CCC(=O)O)s2)N1C(=O)Cc1cc(Cl)c(NC(=O)c2cn(C)c3ccccc23)cc1Cl [Example 54, 3-[2-[1-[2,5-Dichloro-4-(1-methyl-3-indolylcarbonylamino)phenylacetyl]-(5S)-methoxymethyl-(2S)-pyrrolidinyl]-5-thiazolyl]propionic acid] | 24 nM |

The remaining lines, values ahead:

| Ki | SMILES |
| --- | --- |
| 1.2 nM | Cn1cc(C(=O)Nc2cc(F)c(CC(=O)N3CCC[C@H]3c3ncc(CCC(=O)O)s3)cc2Cl)c2ccccc21 [Example 27, 3-[2-[1-[5-Chloro-2-fluoro-4-(1-methyl-3-indolylcarbonyl)aminophenylacetyl]-(2S)-pyrrolidinyl]-5-thiazolyl]propionic acid] |
| 0.86 nM | O=C(O)CCc1cnc([C@@H]2CCCN2C(=O)Cc2cc(Cl)c(NC(=O)c3csc4ccccc34)cc2Cl)s1 [Example 28, 3-[2-[1-[[4-[(3-Benzo[b]thienylcarbonyl)amino]-2,5-dichlorophenyl]acetyl]-(2S)-pyrrolidinyl]-5-thiazolyl]propionic acid] |
| 0.26 nM | O=C(O)CCc1cnc([C@@H]2CCCN2C(=O)Cc2cc(Cl)c(NC(=O)c3csc4ccccc34)cc2F)s1 [Example 29, 3-[2-[1-[4-[(3-Benzo[b]thienylcarbonyl)amino]-5-chloro-2-fluorophenylacetyl]-(2S)-pyrrolidinyl]-5-thiazolyl]propionic acid] |
| 2.1 nM | CO[C@H]1C[C@@H](c2cc(CCC(=O)O)on2)N(C(=O)Cc2cc(Cl)c(NC(=O)c3csc4ccccc34)cc2Cl)C1 [Example 32, 3-[3-[1-[[4-[(3-Benzo[b]thienylcarbonyl)amino]-2,5-dichlorophenyl]acetyl]-(4S)-methoxy-(2S)-pyrrolidinyl]-5-isoxazolyl]propionic acid] |
| 2 nM | CO[C@H]1C[C@@H](c2cc(CCC(=O)O)on2)N(C(=O)Cc2cc(Cl)c(NC(=O)c3csc4ccccc34)cc2F)C1 [Example 33, 3-[3-[1-[[4-[(3-Benzo[b]thienylcarbonyl)amino]-5-chloro-2-fluorophenyl]acetyl]-(4S)-methoxy-(2S)-pyrrolidinyl]-5-isoxazolyl]propionic acid] |
| 3 nM | CC(C)O[C@H]1C[C@@H](c2ncc(CCC(=O)O)s2)N(C(=O)Cc2cc(Cl)c(NC(=O)c3cn(C)c4ccccc34)cc2F)C1 [Example 35, 3-[2-[1-[5-Chloro-2-fluoro-4-(1-methyl-3-indolylcarbonyl)aminophenylacetyl]-(4S)-isopropoxy-(2S)-pyrrolidinyl]-5-thiazolyl]propionic acid] |
| 3.3 nM | CC(C)O[C@H]1C[C@@H](c2ncc(CCC(=O)O)s2)N(C(=O)Cc2cc(Cl)c(NC(=O)c3coc4ccccc34)cc2F)C1 [Example 38] |
| 2.2 nM | O=C(O)CCc1cnc([C@@H]2C[C@H](OC3CCC3)CN2C(=O)Cc2cc(Cl)c(NC(=O)c3csc4ccccc34)cc2F)s1 [Example 41] |
